How the values were obtained:
[1] = Body weight and animal deaths in Vannucci rat model of term neonatal HIE
Protocol: A well-established Vannucci rat model of term neonatal HIE, which combined a left common carotid artery ligation and a 2 hour exposure to hypoxia (8% oxygen) in 10-day-old (P10) rat pups, was used for the experiments, since this model is generally recognized to mimic the brain injuries observed in human term asphyxiated newborns. Briefly, the 10-day-old male Long-Evans rat pups were weighed and then deeply anesthetized with an intraperitoneal injection of fentanyl (0.2 mg/kg) and midazolam (1 mg/kg) to the point of unresponsiveness to noxious stimulation. Lidocaine-prilocaine cream (EMLA®; AstraZeneca Inc.) was applied to the ventral neck skin 30 minutes before surgery. The skin was cleaned with 2% chlorhexidine solution followed by 70% alcohol. A vertical incision was made along the ventral surface of the neck. The left common carotid artery was located, isolated, and then ligated with a single tight suture. Following the unilateral ligation, the skin incision was closed with an adhesive (n-butyl cyanoacrylate; 3 M VetBond Tissue Adhesive®; 3 M USA). The anesthesia was reversed with an intraperitoneal injection of naloxone (0.1 mg/kg) and flumazenil (1 mg/kg). […] For each rat pup, anesthesia time and surgical time were kept to a minimal time of less than 5-10 minutes. The pups were allowed to recover for approximately 1.5 h after surgery and then were placed in a sealed hypoxia chamber (Plastic Concepts, North Billerica, USA). The sealed chamber was infused with nitrogen until a level of 8% oxygen was reached, which was maintained for 2 h (oxygen analyzer model 600, Engineered Systems & Designs, Newark, Del.). The pups were allowed to recover for 30 minutes and then were returned to their cages with the mother. The rats undergoing the whole procedure were considered as the hypoxic-ischemic (HI) group (n=10-12 animals/groups). Sham operated rat pups (identical procedure as the HI group, but not the ligation and hypoxia) served as the control group (n=10-12 animals/groups). The sample size of the current study was a sample size of convenience, subject to restrictions imposed by the institutional ethics committee that reviewed it, and based on the principles of the 3Rs (replacement, reduction, and refinement). Sham rat pups received the same sedation as HI rat pups permitting to control for the effect of sedation on the brain. Normal body temperature of both sham and HI rat pups, while they were separated from the mother, was maintained during the whole procedure (i.e., surgery±hypoxia) using warming blankets (Cincinnati Sub-Zero, Cincinnati, USA).

[2] = oral sildenafil; known; cited from earlier work
[3] = tested on: Long-Evans rat pups (term neonatal HIE model); format: in vivo; conditions: HI rat pups
Description: The experiments were run in a dark environment (below 20 lux of illumination). The equipment consists of a 1.3 m-long glass plate with a dim fluorescent light coming from the side and beamed into the glass. The light reflected downwards by the rats' paws as they contact the glass floor is captured by a high-speed video camera placed under the walkway, and then transformed into a digital image ([…] et al., 2006; Hetze S et al., 2012; Lubjuhn J et al., 2009, […] et al., 2013, Wang Y et al., 2008). The walkway was 90 mm wide. The camera was positioned 40 cm below the walkway, and automatic detection settings were applied. The rat pups walked spontaneously at their own speed; the mother was systematically placed in the goal box to motivate the rat pups to run towards it. An intensity threshold was set to 0.1, the camera gain was set to 20, and the maximum allowed speed variation was set to 60%. A minimum of three quality runs per rat pups were acquired. Only uninterrupted runs were saved for analysis; runs, where animals turned or walked backwards, were excluded, and the animal got another try. […] Step sequence regularity index is a percent index for the degree of interlimb coordination during the gait, as measured by the number of normal step sequence patterns, multiplied by the number of paws and divided by the number of paw placements. […]

[4] = tested on: Sprague-Dawley rats (rat model of ROP); experiment: Retinal layer thickness in rat model of ROP (hyperoxia); format: in vivo; conditions: ROP animals; sildenafil 50 mg/kg per os twice daily P15 to P21; P31; p<0.05
Protocol: Sprague-Dawley rats were exposed to hyperoxia (i.e., 80% oxygen) interrupted by three 0.5-hour periods of normoxia (i.e., 21% oxygen) per day or room air only (i.e., 21% oxygen) from post-natal day 4 (P4) to 14 (P14). Pups were then housed in room air. […] Flash electroretinograms were recorded at P29 to assess the retinal function. At P31, retinas were extracted, sectioned and stained with toluidine blue to measure the thicknesses of the different retinal layers.

[5] = tested on: PDE6; conditions: known; cited from earlier work

With `CCCc1nn(C)c2c(=O)[nH]c(-c3cc(S(=O)(=O)N4CCN(C)CC4)ccc3OCC)nc12` [sildenafil] the “incidence of animal deaths” value ([1]; HI group, sildenafil 2 mg/kg) was 4/12, the “incidence of animal deaths” value ([1]; HI group, sildenafil 10 mg/kg) was 2/11 and the “incidence of animal deaths” value ([1]; HI group, sildenafil 50 mg/kg) was 3/11. For the same molecule, the “incidence of animal deaths” value ([1]; sham groups) was “no animals died”, the oral bioavailability [2] was “good oral bioavailability” and the “print length (gait)” value ([3]; high-dose of sildenafil) was “showed an increase”. The “neurological deficits as measured by the gait analysis” value ([3]; sildenafil even in small doses) was “improvement of the neurological deficits”, the OPL thickness [4] was “improved OPL thickness” and the PDE6 inhibition [5] was “inhibits PDE6, but with a reduced efficiency”.

— US10537575B2, “Phosphodiesterase inhibitors to repair brain and/or retinal injury in human newborns” (priority 2016, dated 2020)
